Experimental data from US20240376094A2, “SELECTIVE BCL-XL PROTAC COMPOUNDS AND METHODS OF USE” (Les Laboratoires Servier, priority 2021, published 2024).

Columns and labels:
MOLT-4 cells = assay: MOLT-4 cell viability, CTG assay; type: cell-based; conditions: Homo sapiens, MOLT-4, 48 h
Text: The MTT colorimetric assay is based on the mitochondrial reduction of tetrazolium salt by living cells. The viable cell number is proportional to the production of formazan salts, which can be read spectrophotometrically at 540 nm. The CTG luminescent assay (CellTiter GLO, Promega) is based on a reagent which lyses cells and measures total adenosine triphosphate (ATP) content. The viable cell number is proportional to the production of ATP.
MOLT-4 cells were purchased from ATCC and cultivated in RPMI 1640 supplemented with 10% heat inactivated fetal bovine serum, penicillin (100 IU/mi), streptomycin (100 μg/ml) and L-glutamine (2 mM). Cells were cultured at 37° C. in a humidified atmosphere containing 5% […].
For CTG assay, cells were seeded in 384 microwell plates (40 μL per well) and exposed to the compounds for 48 h (11-point serial dilution with 5-fold factor, triplicates). At the end of incubation time, 40 μL of CTG solution were added per well. Wells were mixed thoroughly, and plates were incubated at room temperature for 10 minutes to stabilize luminescent signals prior to reading using a luminescence reader (PHERAStar FSX Reader, BMG Labtech).
IC50, were calculated using standard four-parametric curve fitting. IC50 is defined as the compound concentration at which the MTT or CTG signal is reduced to 50% of that measured for the control. Results shown in Table 14 represent the mean of at least 2 independent experiments.

Bcl-xL = biological target: T1, Bcl-xL (Homo sapiens, UniProt Q07817); assay: HCT116 Bcl-xL degradation, capillary-based immunoassay (WES); type: cell-based; conditions: for DC50: HCT116, 24 h, 9-point serial dilution
T1 construct: Measured levels of Bcl-xL protein of HCT116 cells treated with the tested compounds; host or cells: HCT116
T1 sequence (Q07817 whole entry): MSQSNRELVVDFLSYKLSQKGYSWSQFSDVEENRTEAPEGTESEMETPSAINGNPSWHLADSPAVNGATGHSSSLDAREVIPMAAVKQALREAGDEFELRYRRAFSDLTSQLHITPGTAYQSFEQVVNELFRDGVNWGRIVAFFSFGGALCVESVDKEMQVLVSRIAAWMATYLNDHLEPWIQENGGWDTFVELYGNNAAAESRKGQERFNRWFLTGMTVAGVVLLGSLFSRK
Procedure: HCT116 cells were purchased from ATCC and cultivated in RPMI 1640 supplemented with 10% heat inactivated fetal bovine serum, penicillin (100 IU/mi), streptomycin (100 μg/ml) and L-glutamine (2 mM). Cells were cultured at 37° C. in a humidified atmosphere containing 5% CO2. Cells were seeded in 96 microwell plates, 24 h later cells were treated with compounds (2-point 10/100 nM and/or 9-point serial dilution to determine DC50; quadruplicates) during 24 h and harvested in lysis buffer containing 10 mM Hepes (pH 7.5), 150 mM KCl, 5 mM MgCl2, 1 mM EDTA, 0.4% TritonX100, protease and phosphatase inhibitors cocktails (Calbiochem).
Protein concentration in the supernatants was determined using the Pierce BCA protein assay kit (Thermo Fisher Scientific). Lysates (1.5 μg/μL) were analyzed using an automated capillary electrophoresis WES system with 2-40 kDa Wes Separation Module (25 capillary cartridges, Proteinsimple), in accordance with the manufacturer's protocols. Antibodies against the following proteins were used: Bcl-xL (#2764, Cell Signaling Technology, 1:50) and cofilin (#5175, Cell Signaling Technology, 1:1000). Signals were detected with an HRP-conjugated secondary anti-rabbit antibody (#042-206, Proteinsimple) and were quantified using Compass software (version 4.0, Proteinsimple).
Bcl-xL level was calculated by normalizing Bcl-xL values to cofilin and expressed as a percentage of the normalized value of the untreated cells. DC50 were calculated using standard four-parametric curve fitting. DC50 is defined as the compound concentration at which Bcl-xL is reduced to 50% of that measured for the control. Measured levels of Bcl-xL protein of HCT116 cells treated with the tested compounds at 2-point 10 nM/100 nM and/or 9-point for DC50 determination are shown in Table 15.

Row | Compound | IC50 (MOLT-4 cells) [nM] | DC50 (Bcl-xL) [nM] | remaining activity at 0.01 µM (Bcl-xL; HCT-116, HCT116, 10 nM, 24 h, % of untreated cells) [%] | remaining activity at 0.1 µM (Bcl-xL; HCT-116, HCT116, 100 nM, 24 h, % of untreated cells) [%]
1 | Cc1cc(N(CCCCN(C)C(=O)CCCCCCCCCCNc2cccc3c2C(=O)N(C2CCC(=O)NC2=O)C3=O)c2ccc(-c3cnn(CC45CC6(C)CC(C)(C4)CC(OCCN(C)C)(C6)C5)c3C)c(C(=O)O)n2)nnc1Nc1nc2ccccc2s1 (stereo not drawn) [Example 90, 6-[[6-(1,3-benzothiazol-2-ylamino)-5-methyl-pyridazin-3-yl]-[4-[11-[[2-(2,6-dioxo-3-piperidyl)-1,3-dioxo-isoindolin-4-yl]amino]undecanoyl-methyl-amino]butyl]amino]-3-[1-[[3-[2-(dimethylamino)ethoxy]-5,7-dimethyl-1-adamantyl]methyl]-5-methyl-pyrazol-4-yl]pyridine-2-carboxylic acid] | 16.8 | 1.33 | – | –
2 | Cc1cc(N(CCCCN(C)C(=O)CCCCCCCCNc2cccc3c2C(=O)N(C2CCC(=O)NC2=O)C3=O)c2ccc(-c3cnn(CC45CC6(C)CC(C)(C4)CC(OCCN(C)C)(C6)C5)c3C)c(C(=O)O)n2)nnc1Nc1nc2ccccc2s1 (stereo not drawn) [Example 91, 6-[[6-(1,3-benzothiazol-2-ylamino)-5-methyl-pyridazin-3-yl]-[4-[9-[[2-(2,6-dioxo-3-piperidyl)-1,3-dioxo-isoindolin-4-yl]amino]nonanoyl-methyl-amino]butyl]amino]-3-[1-[[3-[2-(dimethylamino)ethoxy]-5,7-dimethyl-1-adamantyl]methyl]-5-methyl-pyrazol-4-yl]pyridine-2-carboxylic acid] | 12.7 | 0.407 | – | –
3 | CN[C@@H](C)C(=O)N[C@H](C(=O)N1CCC[C@H]1c1nc(C(=O)c2cccc(OCCCCCCCCCCCCN(C)CCOC34CC5(C)CC(C)(CC(Cn6ncc(-c7ccc(N8CCCc9c8nnc(Nc8nc%10ccccc%10s8)c9C)nc7C(=O)O)c6C)(C5)C3)C4)c2)cs1)C1CCCCC1 [Example 96, 6-[3-(1,3-benzothiazol-2-ylamino)-4-methyl-6,7-dihydro-5H-pyrido[2,3-c]pyridazin-8-yl]-3-[1-[[3-[2-[12-[3-[2-[(2S)-1-[(2S)-2-cyclohexyl-2-[[(2S)-2-(methylamino)propanoyl]amino]acetyl]pyrrolidin-2-yl]thiazole-4-carbonyl]phenoxy]dodecyl-methyl-amino]ethoxy]-5,7-dimethyl-1-adamantyl]methyl]-5-methyl-pyrazol-4-yl]pyridine-2-carboxylic acid] | 4.36 | > 316 | – | –
4 | Cc1c(Nc2nc3ccccc3s2)nnc2c1CCCN2c1ccc(-c2cnn(CC34CC5(C)CC(C)(C3)CC(OCCN(C)CCCCCCCCCOc3ccc6c(c3)C(=O)N(C3CCC(=O)NC3=O)C6=O)(C5)C4)c2C)c(C(=O)O)n1 (stereo not drawn) [Example 104, 6-[3-(1,3-benzothiazol-2-ylamino)-4-methyl-6,7-dihydro-5H-pyrido[2,3-c]pyridazin-8-yl]-3-[1-[[3-[2-[9-[2-(2,6-dioxo-3-piperidyl)-1,3-dioxo-isoindolin-5-yl]oxynonyl-methyl-amino]ethoxy]-5,7-dimethyl-1-adamantyl]methyl]-5-methyl-pyrazol-4-yl]pyridine-2-carboxylic acid] | 1.74 | 0.0184 | – | –
5 | Cc1c(Nc2nc3ccccc3s2)nnc2c1CCCN2c1nc(C(=O)O)c(CCCOc2ccc(C#CCN3CCN(C(=O)CCCC(=O)NCCOCCNC(=O)COc4cccc5c4C(=O)N(C4CCC(=O)NC4=O)C5=O)CC3)cc2F)s1 (stereo not drawn) [Example 174, 2-[3-(1,3-benzothiazol-2-ylamino)-4-methyl-6,7-dihydro-5H-pyrido[2,3-c]pyridazin-8-yl]-5-[3-[4-[3-[4-[5-[2-[2-[[2-[2-(2,6-dioxo-3-piperidyl)-1,3-dioxo-isoindolin-4-yl]oxyacetyl]amino]ethoxy]ethylamino]-5-oxo-pentanoyl]piperazin-1-yl]prop-1-ynyl]-2-fluoro-phenoxy]propyl]thiazole-4-carboxylic acid] | 26 | > 316 | – | –
6 | Cc1c(Nc2nc3ccccc3s2)nnc2c1CCCN2c1ccc(-c2cnn(CC34CC5(C)CC(C)(C3)CC(OCCN(C)CCCCCCOc3cccc6c3C(=O)N(C3CCC(=O)NC3=O)C6=O)(C5)C4)c2C)c(C(=O)O)n1 (stereo not drawn) [Example 141, 6-[3-(1,3-benzothiazol-2-ylamino)-4-methyl-6,7-dihydro-5H-pyrido[2,3-c]pyridazin-8-yl]-3-[1-[[3-[2-[6-[2-(2,6-dioxo-3-piperidyl)-1,3-dioxo-isoindolin-4-yl]oxyhexyl-methyl-amino]ethoxy]-5,7-dimethyl-1-adamantyl]methyl]-5-methyl-pyrazol-4-yl]pyridine-2-carboxylic acid] | 10.4 | > 316 | – | –
7 | Cc1c(Nc2nc3ccccc3s2)nnc2c1CCCN2c1ccc(-c2cnn(CC34CC5(C)CC(C)(C3)CC(OCCN(C)CCCCCC(=O)N3CCC(c6ccc7c(c6)CN(C6CCC(=O)NC6=O)C7=O)CC3)(C5)C4)c2C)c(C(=O)O)n1 (stereo not drawn) [Example 67, 6-[3-(1,3-benzothiazol-2-ylamino)-4-methyl-6,7-dihydro-5H-pyrido[2,3-c]pyridazin-8-yl]-3-[1-[[3-[2-[[6-[4-[2-(2,6-dioxo-3-piperidyl)-1-oxo-isoindolin-5-yl]-1-piperidyl]-6-oxo-hexyl]-methyl-amino]ethoxy]-5,7-dimethyl-1-adamantyl]methyl]-5-methyl-pyrazol-4-yl]pyridine-2-carboxylic acid] | 24.2 | > 316 | – | –
8 | CN[C@@H](C)C(=O)N[C@H](C(=O)N1CCC[C@H]1c1nc(C(=O)c2cccc(OCCN(C)CCOC34CC5(C)CC(C)(CC(Cn6ncc(-c7ccc(N8CCCc9c8nnc(Nc8nc%10ccccc%10s8)c9C)nc7C(=O)O)c6C)(C5)C3)C4)c2)cs1)C1CCCCC1 [Example 101, 6-[3-(1,3-benzothiazol-2-ylamino)-4-methyl-6,7-dihydro-5H-pyrido[2,3-c]pyridazin-8-yl]-3-[1-[[3-[2-[2-[3-[2-[(2S)-1-[(2S)-2-cyclohexyl-2-[[(2S)-2-(methylamino)propanoyl]amino]acetyl]pyrrolidin-2-yl]thiazole-4-carbonyl]phenoxy]ethyl-methyl-amino]ethoxy]-5,7-dimethyl-1-adamantyl]methyl]-5-methyl-pyrazol-4-yl]pyridine-2-carboxylic acid] | 7.68 | 0.612 | – | –
9 | Cc1c(Nc2nc3ccccc3s2)nnc2c1CCCN2c1ccc(-c2cnn(CC34CC5(C)CC(C)(C3)CC(OCCN(C)CCOCCOCCOCCOCCNc3cccc6c3C(=O)N(C3CCC(=O)NC3=O)C6=O)(C5)C4)c2C)c(C(=O)O)n1 (stereo not drawn) [Example 132, 6-[3-(1,3-benzothiazol-2-ylamino)-4-methyl-6,7-dihydro-5H-pyrido[2,3-c]pyridazin-8-yl]-3-[1-[[3-[2-[2-[2-[2-[2-[2-[[2-(2,6-dioxo-3-piperidyl)-1,3-dioxo-isoindolin-4-yl]amino]ethoxy]ethoxy]ethoxy]ethoxy]ethyl-methyl-amino]ethoxy]-5,7-dimethyl-1-adamantyl]methyl]-5-methyl-pyrazol-4-yl]pyridine-2-carboxylic acid] | 26.6 | – | 108 | 103
10 | Cc1c(Nc2nc3ccccc3s2)nnc2c1CCCN2c1ccc(-c2cnn(CC34CC5(C)CC(C)(C3)CC(OCCN(C)CCCCCCCCCCCCCCCCOc3ccc6c(c3)C(=O)N(C3CCC(=O)NC3=O)C6=O)(C5)C4)c2C)c(C(=O)O)n1 (stereo not drawn) [Example 147, 6-[3-(1,3-benzothiazol-2-ylamino)-4-methyl-6,7-dihydro-5H-pyrido[2,3-c]pyridazin-8-yl]-3-[1-[[3-[2-[16-[2-(2,6-dioxo-3-piperidyl)-1,3-dioxo-isoindolin-5-yl]oxyhexadecyl-methyl-amino]ethoxy]-5,7-dimethyl-1-adamantyl]methyl]-5-methyl-pyrazol-4-yl]pyridine-2-carboxylic acid] | 5.34 | > 316 | – | –
